{"source": "patent US11324732B2", "about": "“Methods for the treatment of dyskinesia in cerebral palsy” (AUSPEX PHARMACEUTICALS, INC., priority 2018, dated 2022)", "key": {"[1]": {"conditions": "relative to tetrabenazine; U.S. Pat. No. 8,524,733; cited from earlier work"}, "[2]": {"tested_on": "children and adolescents with dyskinesia in cerebral palsy"}, "[3]": {"tested_on": "pediatric patients diagnosed with DCP, predominant motor symptoms dystonic", "assay": "Example 4: Phase 3 efficacy study, predominantly dystonic DCP", "assay_type": "in vivo, human", "experimental": "(§1) A Phase 3 study to evaluate the efficacy and safety of deutetrabenazine is performed on a population consisting of male and female patients, diagnosed with DCP. Patients may be included in the study only if they meet all of the following criteria: • 1. Patient is 6 through 18 years of age (inclusive) at baseline. • 2. Patient has had cerebral palsy (CP) symptoms since infancy (≤2 years). • 3. Patient has a diagnosis of DCP according to the Surveillance of Cerebral Palsy in Europe criteria. • 4. Patient has a total score of ≥10 on the MD-CRS part II items at the baseline visit, based on investigator scoring of chorea. • 5. Patient's symptoms are causing functional problems determined by a Clinical Global\nImpression of Severity (CGI-S) score of 4 or greater based on investigator scoring. • 6. Patient's predominant motor symptoms are dystonic.\n(§2) Patients will receive 6 mg to 48 mg of deutetrabenazine. The titration scheme and maximum dose follows the one in the parent study, Example 1, supra."}, "[4]": {"tested_on": "adult patients diagnosed with DCP, choreiform predominant", "assay": "Example 3: Phase 3 efficacy study in adults", "assay_type": "in vivo, human", "experimental": "as §1, with “older than” for “6 through”, “age” for “age (inclusive)”\nImpression of Severity (CGI-S) score of 4 or greater based on investigator scoring. • 6. Choreiform is the predominant movement disorder as assessed by the EAB at screening.\nas §2"}, "[5]": {"tested_on": "patients (age 6 through 18 years) with DCP with predominant choreiform movement disorder"}, "patients with CP": {"tested_on": "patients with CP", "conditions": "cited from earlier work"}, "[6]": {"conditions": "versus placebo, from baseline to week 15"}}}
{"smiles": "[2H]C([2H])([2H])Oc1cc2c(cc1OC([2H])([2H])[2H])[C@H]1CC(=O)[C@H](CC(C)C)CN1CC2", "note": "(racemic) [deutetrabenazine, (RR,SS)-1,3,4,6,7,11b-hexahydro-9,10-di(methoxy-d3)-3-(2-methylpropyl)-2H-benzo[a]quinolizin-2-one]", "values": [{"measurement": "half-life of its active metabolites", "setting": "[1]", "value": "increased half-life"}, {"measurement": "safety profile", "setting": "[2]; in vivo", "value": "favorable safety profile"}, {"measurement": "abnormal involuntary movements associated with dyskinesia in cerebral palsy", "setting": "[2]; long term administration of tolerable amounts", "value": "reduce abnormal involuntary movements"}, {"measurement": "safety profile", "setting": "[3]", "value": "favorable safety profile"}, {"measurement": "dystonic abnormal involuntary movements associated with dyskinesia in cerebral palsy", "setting": "[3]; 6 mg to 48 mg", "value": "reduce dystonic abnormal involuntary movements"}, {"measurement": "safety profile", "setting": "[4]", "value": "favorable safety profile"}, {"measurement": "abnormal involuntary movements associated with dyskinesia in cerebral palsy", "setting": "[4]; 6 mg to 48 mg", "value": "reduce abnormal involuntary movements"}, {"measurement": "overall safety and efficacy of treatment", "setting": "[5]; 6-48 mg/day oral, versus placebo", "value": "safe and effective"}, {"measurement": "PGI-I response", "setting": "[5]; Much Improved or Somewhat Improved in the PGI-I score", "value": "demonstrate a PGI-I response"}, {"measurement": "CGI-I response", "setting": "[5]; Much Improved or Very Much Improved in the CGI-I score", "value": "demonstrate a CGI-I response"}, {"measurement": "CaGI-I response", "setting": "[5]; Much Improved or Very Much Improved in the CaGI-I score", "value": "demonstrate a CaGI-I response"}, {"measurement": "PEDI-CAT", "setting": "[5]; activities of daily living, parent/caregiver completed", "value": "improvement"}, {"measurement": "UHDRS-TMC", "setting": "[5]; in vivo", "value": "significant reductions"}, {"measurement": "UHDRS-TMD", "setting": "[5]; in vivo", "value": "significant reductions"}, {"measurement": "UHDRS-TMS", "setting": "[5]; in vivo", "value": "significant reductions"}, {"measurement": "safety by C-SSRS, ESRS, CBCL, ESS and lack of serious adverse events", "setting": "[5]; in vivo", "value": "safe"}, {"measurement": "CP module of the PedsQL", "setting": "[5]; quality of life, patient/caregiver", "value": "significant reductions"}, {"measurement": "CGI-S response", "setting": "[5]; reduction of >1 point in the CGI-S score", "value": "demonstrate a CGI-S response"}, {"measurement": "reduction in the CGI-I score", "setting": "[5]; [6]", "value": "0.5-0.7 points"}, {"measurement": "reduction in the CaGI-I score", "setting": "[5]; [6]", "value": "0.5-0.7 points"}, {"measurement": "reduction in the MD-CRS part I total score", "setting": "[5]; [6]", "value": "2-4 points"}, {"measurement": "reduction in the MD-CRS part II total score", "setting": "[5]; [6]", "value": "0.5-4 points"}, {"measurement": "all primary and secondary endpoints", "setting": "[5]; versus placebo, week 15", "value": "significant improvements"}]}
{"smiles": "Nc1ccncc1", "note": "[Dalfampridine]", "values": [{"measurement": "functional improvement", "setting": "patients with CP", "value": "failed to demonstrate functional improvement"}]}
